# Measurements reported in ChEMBL document CHEMBL3046832, “Synthesis of some sulfonamides, disubstituted sulfonylureas or thioureas and some structurally related variants. A class of promising antitumor agents” (2007).
# Legend:
# Type in all cases: functional
# [1] = test system: SF-268; assay: Cytotoxicity against Homo sapiens (human) SF268 cells assessed as cellular growth after 48 hr by Alamar blue assay; parameters: concentration or dose not given beside the values
# [2] = test system: OVCAR-4; assay: Cytotoxicity against Homo sapiens (human) OVCAR4 cells after 48 hr by SRB assay; details: OVCAR-4, 48 h
# [3] = test system: CAKI-1; assay: Cytotoxicity against Homo sapiens (human) Caki1 cells after 48 hr by SRB assay; details: CAKI-1, 48 h
# [4] = test system: NCI-H522; assay: Cytotoxicity against Homo sapiens (human) NCI-H522 cells after 48 hr by SRB assay; details: NCI-H522, 48 h
# [5] = test system: M14; assay: Cytotoxicity against Homo sapiens (human) M14 cells after 48 hr by SRB assay; details: M14, 48 h
# [6] = Cytotoxicity against Homo sapiens (human) renal cancer cells after 48 hr by SRB assay; details: Cancer cell lines
# [7] = test system: U-251; assay: Cytotoxicity against Homo sapiens (human) U251 cells after 48 hr by SRB assay; details: U-251, 48 h
# [8] = test system: MDA-MB-231; assay: Cytotoxicity against Homo sapiens (human) MDA-MB-231 cells after 48 hr by SRB assay; details: MDA-MB-231, 48 h
# [9] = Cytotoxicity against Homo sapiens (human) NCI-ADR-RES cells after 48 hr by SRB assay
# [10] = test system: MOLT-4; assay: Cytotoxicity against Homo sapiens (human) MOLT4 cells after 48 hr by SRB assay; details: MOLT-4, 48 h
# [11] = test system: IGROV-1; assay: Cytotoxicity against Homo sapiens (human) IGROV1 cells after 48 hr by SRB assay; details: IGROV-1, 48 h
# [12] = test system: 786-0; assay: Cytotoxicity against Homo sapiens (human) 786-0 cells after 48 hr by SRB assay; details: 786-0, 48 h
# [13] = test system: EKVX; assay: Cytotoxicity against Homo sapiens (human) EKVX cells after 48 hr by SRB assay
# [14] = test system: RXF 393; assay: Cytotoxicity against Homo sapiens (human) RXF393 cells after 48 hr by SRB assay; details: RXF 393, 48 h
# [15] = test system: Hs-578T; assay: Cytotoxicity against Homo sapiens (human) Hs578T cells after 48 hr by SRB assay
# [16] = test system: UACC-62; assay: Cytotoxicity against Homo sapiens (human) UACC62 cells after 48 hr by SRB assay; details: UACC-62, 48 h
# [17] = test system: HOP-62; assay: Cytotoxicity against Homo sapiens (human) HOP62 cells after 48 hr by SRB assay; details: HOP-62, 48 h
# [18] = test system: SNB-19; assay: Cytotoxicity against Homo sapiens (human) SNB19 cells after 48 hr by SRB assay; details: SNB-19, 48 h
# [19] = Cytotoxicity against Homo sapiens (human) ovarian cancer cells after 48 hr by SRB assay; details: Cancer cell lines
# [20] = test system: A549; assay: Cytotoxicity against Homo sapiens (human) A549 cells after 48 hr by SRB assay; details: A549, 48 h
# [21] = test system: NCI-H460; assay: Cytotoxicity against Homo sapiens (human) NCI-H460 cells assessed as cellular growth after 48 hr by Alamar blue assay; parameters: concentration or dose not given beside the values
# [22] = Cytotoxicity against Homo sapiens (human) CNS cancer cells after 48 hr by SRB assay; details: Cancer cell lines
# [23] = Cytotoxicity against Homo sapiens (human) colon cancer cells after 48 hr by SRB assay; details: Cancer cell lines
# [24] = test system: PC-3; assay: Cytotoxicity against Homo sapiens (human) PC3 cells after 48 hr by SRB assay; details: PC-3, 48 h
# [25] = test system: SK-OV-3; assay: Cytotoxicity against Homo sapiens (human) SKOV3 cells after 48 hr by SRB assay; details: SK-OV-3, 48 h
# [26] = test system: HCT-15; assay: Cytotoxicity against Homo sapiens (human) HCT15 cells after 48 hr by SRB assay; details: HCT-15, 48 h
# [27] = test system: T47D; assay: Cytotoxicity against Homo sapiens (human) T47D cells after 48 hr by SRB assay
# [28] = test system: HOP-92; assay: Cytotoxicity against Homo sapiens (human) HOP92 cells after 48 hr by SRB assay; details: HOP-92, 48 h
# [29] = test system: SN12C; assay: Cytotoxicity against Homo sapiens (human) SN12C cells after 48 hr by SRB assay
# [30] = test system: COLO 205; assay: Cytotoxicity against Homo sapiens (human) COLO205 cells after 48 hr by SRB assay; details: COLO 205, 48 h
# [31] = test system: SK-MEL-5; assay: Cytotoxicity against Homo sapiens (human) SK-MEL-5 cells after 48 hr by SRB assay; details: SK-MEL-5, 48 h
# [32] = test system: MDA-MB-435; assay: Cytotoxicity against Homo sapiens (human) MDA-MB-435 cells after 48 hr by SRB assay; details: MDA-MB-435, 48 h
# [33] = test system: NCI-H23; assay: Cytotoxicity against Homo sapiens (human) NCI-H23 cells after 48 hr by SRB assay; details: NCI-H23, 48 h
# [34] = test system: OVCAR-5; assay: Cytotoxicity against Homo sapiens (human) OVCAR5 cells after 48 hr by SRB assay; details: OVCAR-5, 48 h
# [35] = test system: MCF7; assay: Cytotoxicity against Homo sapiens (human) MCF7 cells after 48 hr by SRB assay; details: MCF7, 48 h
# [36] = test system: MCF7; assay: Cytotoxicity against Homo sapiens (human) MCF7 cells assessed as cellular growth after 48 hr by Alamar blue assay; parameters: concentration or dose not given beside the values
# [37] = test system: OVCAR-3; assay: Cytotoxicity against Homo sapiens (human) OVCAR3 cells after 48 hr by SRB assay; details: OVCAR-3, 48 h
# [38] = test system: SF-295; assay: Cytotoxicity against Homo sapiens (human) SF295 cells after 48 hr by SRB assay; details: SF-295, 48 h
# [39] = test system: UO-31; assay: Cytotoxicity against Homo sapiens (human) UO31 cells after 48 hr by SRB assay; details: UO-31, 48 h
# [40] = test system: KM12; assay: Cytotoxicity against Homo sapiens (human) KM12 cells after 48 hr by SRB assay; details: KM12, 48 h
# [41] = Cytotoxicity against Homo sapiens (human) NCI-H322 cells after 48 hr by SRB assay; details: NCI-H322, 48 h
# [42] = Cytotoxicity against Homo sapiens (human) melanoma cells after 48 hr by SRB assay; details: Melanoma cell
# [43] = test system: RPMI-8226; assay: Cytotoxicity against Homo sapiens (human) RPMI8226 cells after 48 hr by SRB assay; details: RPMI-8226, 48 h
# [44] = test system: SW-620; assay: Cytotoxicity against Homo sapiens (human) SW620 cells after 48 hr by SRB assay; details: SW-620, 48 h
# [45] = Cytotoxicity against Homo sapiens (human) leukemia cells after 48 hr by SRB assay; details: Leukemia cell
# [46] = Cytotoxicity against Homo sapiens (human) breast cancer cells after 48 hr by SRB assay; details: Cancer cell lines
# [47] = test system: BT-549; assay: Cytotoxicity against Homo sapiens (human) BT549 cells after 48 hr by SRB assay; details: BT-549, 48 h
smiles,measurement,setting,value
NS(=O)(=O)c1ccc(-n2nc3c(c2-c2cccs2)Cc2ccccc2-3)cc1,Activity,[1],<=32%
same,GI50,[2],29.9 µM
same,GI50,[3],10.1 µM
same,GI50,[4],12.4 µM
same,GI50,[5],17.2 µM
same,GI50,[6],13.3 µM
same,TGI,[6],29.7 µM
same,GI50,[7],12.3 µM
same,GI50,[8],17.3 µM
same,GI50,[9],12.4 µM
same,GI50,[10],1.43 µM
same,GI50,[11],2.49 µM
same,GI50,[12],17.1 µM
same,GI50,[13],11.9 µM
same,GI50,[14],17.4 µM
same,GI50,[15],16.1 µM
same,GI50,[16],11.5 µM
same,GI50,[17],16.5 µM
same,GI50,[18],18.1 µM
same,GI50,[19],20.6 µM
same,TGI,[19],37.3 µM
same,GI50,[20],20.7 µM
same,Activity,[21],<=32%
same,GI50,[22],31.8 µM
same,TGI,[22],42 µM
same,GI50,[23],14.9 µM
same,TGI,[23],37.2 µM
same,GI50,[24],20.6 µM
same,GI50,[25],37.7 µM
same,GI50,[26],12 µM
same,GI50,[27],12.8 µM
same,GI50,[28],5.56 µM
same,GI50,[29],12.2 µM
same,GI50,[30],25.3 µM
same,GI50,[31],10.5 µM
same,GI50,[32],11.8 µM
same,GI50,[33],11.9 µM
same,GI50,[34],18.5 µM
same,GI50,[35],> 100 µM
same,Activity,[36],<=32%
same,GI50,[37],14.4 µM
same,GI50,[38],13.8 µM
same,GI50,[39],12.2 µM
same,GI50,[40],13.5 µM
same,GI50,[41],11.9 µM
same,GI50,[42],17.5 µM
same,TGI,[42],38.9 µM
same,GI50,[43],6.68 µM
same,GI50,[44],10.7 µM
same,GI50,[45],3.3 µM
same,TGI,[45],15.7 µM
same,GI50,[46],26.1 µM
same,TGI,[46],34.7 µM
same,GI50,[47],12.4 µM
O=C(Nc1ccccc1)NS(=O)(=O)c1ccc(N2N=C3c4ccccc4CC3C2c2cccnc2)cc1 (stereo not drawn),Activity,[1],<=32%
same,GI50,[2],> 100 µM
same,GI50,[3],26.4 µM
same,GI50,[4],17.7 µM
same,GI50,[5],24.9 µM
same,GI50,[6],31.7 µM
same,TGI,[6],86.4 µM
same,GI50,[7],31.9 µM
same,GI50,[8],19.8 µM
same,GI50,[9],64.4 µM
same,GI50,[10],11.6 µM
same,GI50,[11],16.2 µM
same,GI50,[12],35.5 µM
same,GI50,[13],27.8 µM
same,GI50,[14],45.3 µM
same,GI50,[15],40.7 µM
same,GI50,[16],17.8 µM
same,GI50,[17],20.4 µM
same,GI50,[18],83.9 µM
same,GI50,[19],48.6 µM
same,TGI,[19],90.8 µM
same,GI50,[20],29.2 µM
same,Activity,[21],<=32%
same,GI50,[22],54.8 µM
same,TGI,[22],87.6 µM
same,GI50,[23],26.2 µM
same,TGI,[23],78.7 µM
same,GI50,[24],36.2 µM
same,GI50,[25],> 100 µM
same,GI50,[26],23.1 µM
same,GI50,[27],93 µM
same,GI50,[28],74.9 µM
same,GI50,[29],30.4 µM
same,GI50,[30],31.1 µM
same,GI50,[31],23.6 µM
same,GI50,[32],21.4 µM
same,GI50,[33],20.8 µM
same,GI50,[34],26.8 µM
same,GI50,[35],27 µM
same,Activity,[36],<=32%
same,GI50,[37],21.6 µM
same,GI50,[38],20.6 µM
same,GI50,[39],48.8 µM
same,GI50,[40],24.8 µM
same,GI50,[41],17.3 µM
same,GI50,[42],30.8 µM
same,TGI,[42],49.3 µM
same,GI50,[43],27.1 µM
same,GI50,[44],34 µM
same,GI50,[45],26.5 µM
same,TGI,[45],91.4 µM
same,GI50,[46],42.4 µM
same,TGI,[46],87.8 µM
same,GI50,[47],30.6 µM
